According to US20080051457A1, “Optically Active Phthalamide Derivative, Agricultural or Horticultural Insecticide, and Method of Using the Same” (priority 2004, published 2008):

Assay: logP (pH2.3), physical properties of Tables 1 to 3
Type: physicochemical
Conditions: not given
Source text: However, the present invention is not limited to these compounds. In the tables, the term “physical properties” means a melting point or logp. The symbol “Me” represents a methyl group, “Et” represents an ethyl group, “Pr” represents a propyl group, “-n” represents normal, and “-i” represents iso.

SMILES	Physical properties logP(pH2.3)
Cc1cc(C(F)(C(F)(F)F)C(F)(F)F)ccc1NC(=O)c1cccc(Br)c1C(=O)N[C@H](C[S+](C)[O-])C(C)C (stereo partly drawn) [Compound 1-352]	3.06
Cc1cc(C(F)(C(F)(F)F)C(F)(F)F)ccc1NC(=O)c1cccc(Br)c1C(=O)N[C@@H](CC(C)C)C[S+](C)[O-] (stereo partly drawn) [Compound 1-361]	3.30
CSC[C@H](CC(C)C)NC(=O)c1c(I)cccc1C(=O)Nc1ccc(C(F)(C(F)(F)F)C(F)(F)F)cc1C [Compound 1-363]	5.24
CC[C@@H](CS(C)(=O)=O)NC(=O)c1c(I)cccc1C(=O)Nc1ccc(C(F)(C(F)(F)F)C(F)(F)F)cc1C [Compound 1-347]	3.45
Cc1cc(C(F)(C(F)(F)F)C(F)(F)F)ccc1NC(=O)c1cccc(I)c1C(=O)N[C@@H](CC(C)C)CS(C)(=O)=O [Compound 1-365]	3.87

Same assay, conditions: Table 1

SMILES	Physical properties: logP
CCSC[C@H](C)NC(=O)c1c(Cl)cccc1C(=O)Nc1ccc(C(F)(F)C(F)(F)F)c(Cl)c1C [Compound 1-210]	4.37
CCSC[C@H](C)NC(=O)c1c(Cl)cccc1C(=O)Nc1ccc(C(F)(F)C(F)(F)F)c(F)c1C [Compound 1-207]	4.21
CCSC[C@H](C)NC(=O)c1c(I)cccc1C(=O)Nc1ccc(C(F)(F)C(F)(F)F)c(Cl)c1C [Compound 1-111]	4.53
CCSC[C@H](C)NC(=O)c1c(I)cccc1C(=O)Nc1ccc(OC(F)(F)F)c(Br)c1Cl [Compound 1-162]	4.42
CC[S+]([O-])C[C@H](C)NC(=O)c1c(I)cccc1C(=O)Nc1ccc(C(F)(C(F)(F)F)C(F)(F)F)c(F)c1C (stereo partly drawn) [Compound 1-106]	2.97
CCSC[C@H](C)NC(=O)c1c(Br)cccc1C(=O)Nc1ccc(OC(F)(F)F)c(F)c1C [Compound 1-189]	3.81
CC[S+]([O-])C[C@H](C)NC(=O)c1c(Cl)cccc1C(=O)Nc1ccc(C(F)(C(F)(F)F)C(F)(F)F)c(F)c1C (stereo partly drawn) [Compound 1-202]	2.86
CCS(=O)(=O)C[C@H](C)NC(=O)c1c(Br)cccc1C(=O)Nc1cc(F)c(OC(F)(F)F)cc1Br [Compound 1-197]	2.99

The remaining lines, values ahead:

Physical properties: logP	SMILES
4.20	CSC[C@H](C)NC(=O)c1c(I)cccc1C(=O)Nc1ccc(C(F)(F)C(F)(F)F)c(Cl)c1C [Compound 1-144]
3.77	CCSC[C@H](C)NC(=O)c1c(I)cccc1C(=O)Nc1ccc(I)c(F)c1C [Compound 1-132]
3.66	CCSC[C@H](C)NC(=O)c1c(Br)cccc1C(=O)Nc1ccc(I)c(F)c1C [Compound 1-183]
2.66	CCS(=O)(=O)C[C@H](C)NC(=O)c1c(Br)cccc1C(=O)Nc1ccc(C(F)(F)F)c(F)c1C [Compound 1-182]
3.54	CCSC[C@H](C)NC(=O)c1c(Br)cccc1C(=O)Nc1ccc(Br)c(F)c1C [Compound 1-177]
2.86	Cc1c(NC(=O)c2cccc(Br)c2C(=O)N[C@@H](C)CS(C)(=O)=O)ccc(C(F)(F)C(F)(F)F)c1F [Compound 1-167]
2.50	Cc1c(NC(=O)c2cccc(I)c2C(=O)N[C@@H](C)C[S+](C)[O-])ccc(C(F)(F)C(F)(F)F)c1F (stereo partly drawn) [Compound 1-136]
2.39	CCS(=O)(=O)C[C@H](C)NC(=O)c1c(Br)cccc1C(=O)Nc1ccc(Br)c(F)c1C [Compound 1-179]
3.06	CCS(=O)(=O)C[C@H](C)NC(=O)c1c(Br)cccc1C(=O)Nc1ccc(C(F)(F)C(F)(F)F)c(F)c1C [Compound 1-173]
2.59	CCS(=O)(=O)C[C@H](C)NC(=O)c1c(I)cccc1C(=O)Nc1ccc(I)c(F)c1C [Compound 1-134]
3.14	CCS(=O)(=O)C[C@H](C)NC(=O)c1c(Cl)cccc1C(=O)Nc1ccc(C(F)(F)C(F)(F)F)c(Cl)c1C [Compound 1-212]
